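These data come from cells grown in 96-well plates and exposed to compound for 48 hours at five concentrations. Abbreviation: GI50, concentration required for 50% inhibition of growth.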 Active and inactive are the calls of the source. Rule as the data show it: active = GI50 up to about 1.1 µM and inactive = higher.
Columns and labels:
Assay in all cases: NCI anticancer screen, dose series, 48 h
OVCAR-3 = test system: OVCAR-3
NCI-H226 = test system: NCI-H226
RXF 393 = test system: RXF 393
SF-539 = test system: SF-539
M14 = test system: M14
HT-29 = test system: HT-29
OVCAR-8 = test system: OVCAR-8
NCI-H522 = test system: NCI-H522
OVCAR-5 = test system: OVCAR-5
UACC-257 = test system: UACC-257
UO-31 = test system: UO-31
OVCAR-4 = test system: OVCAR-4
NCI-H460 = test system: NCI-H460
SNB-19 = test system: SNB-19
MOLT-4 = test system: MOLT-4

Row | Compound | GI50 (OVCAR-3) | GI50 (NCI-H226) | GI50 (RXF 393) | GI50 (SF-539) | GI50 (M14) | GI50 (HT-29) | GI50 (OVCAR-8) | GI50 (NCI-H522) | GI50 (OVCAR-5) | GI50 (UACC-257) | GI50 (UO-31) | GI50 (OVCAR-4) | GI50 (NCI-H460) | GI50 (SNB-19) | GI50 (MOLT-4)
1 | C#CCN(Cc1ccc2nc(-c3ccccc3)c(Cl)nc2c1)c1cc(OC)c(OC)c(OC)c1 | > 100 µM (inactive) | > 100 µM (inactive) | 37.1 µM (inactive) | > 100 µM (inactive) | > 100 µM (inactive) | > 100 µM (inactive) | > 100 µM (inactive) | > 100 µM (inactive) | > 100 µM (inactive) | 39.2 µM (inactive) | > 100 µM (inactive) | > 100 µM (inactive) | 46.1 µM (inactive) | > 100 µM (inactive) | 83.6 µM (inactive)
2 | Nc1nc(Cl)cc(NCCCCCCCCCCNc2cc(Cl)nc(N)n2)n1 | 1.82 µM (inactive) | 1.99 µM (inactive) | 13.9 µM (inactive) | 22.1 µM (inactive) | 6.44 µM (inactive) | 8.93 µM (inactive) | 12.2 µM (inactive) | 0.415 µM (active) | 0.043 µM (active) | 1.05 µM (active) | 11.3 µM (inactive) | 8.13 µM (inactive) | 5.96 µM (inactive) | 75 µM (inactive) | 
3 | COC(=O)C(C)Oc1ccc(O)cc1 (configuration not stated) | > 100 µM (inactive) | > 100 µM (inactive) |  | > 100 µM (inactive) | > 100 µM (inactive) | > 100 µM (inactive) | > 100 µM (inactive) | > 100 µM (inactive) | > 100 µM (inactive) | > 100 µM (inactive) | > 100 µM (inactive) | > 100 µM (inactive) | > 100 µM (inactive) | > 100 µM (inactive) | 
4 | N#Cc1cccnc1Cl | > 100 µM (inactive) | > 100 µM (inactive) | > 100 µM (inactive) | > 100 µM (inactive) | > 100 µM (inactive) | > 100 µM (inactive) | > 100 µM (inactive) | > 100 µM (inactive) | > 100 µM (inactive) | > 100 µM (inactive) | > 100 µM (inactive) | > 100 µM (inactive) | > 100 µM (inactive) | > 100 µM (inactive) | > 100 µM (inactive)
5 | O=C1Cc2ccccc2N1/N=C\c1ccc(O)cc1 | > 100 µM (inactive) | > 100 µM (inactive) |  | 95.7 µM (inactive) | > 100 µM (inactive) | > 100 µM (inactive) | > 100 µM (inactive) |  | > 100 µM (inactive) | 47 µM (inactive) | 45.1 µM (inactive) | > 100 µM (inactive) | > 100 µM (inactive) | > 100 µM (inactive) | 13.4 µM (inactive)
6 | O=C(/C=C/c1ccccc1O)c1ccc([N+](=O)[O-])cc1 | 12.4 µM (inactive) | 18 µM (inactive) | 11 µM (inactive) | 15.4 µM (inactive) | 20.9 µM (inactive) | 19.9 µM (inactive) | 15.5 µM (inactive) | 17.3 µM (inactive) | 22.1 µM (inactive) | 53.3 µM (inactive) | 19.1 µM (inactive) | 12 µM (inactive) | 22.7 µM (inactive) | 16.6 µM (inactive) | 22.3 µM (inactive)
7 | COc1cc(/C=C(\NC(=O)c2ccccc2)c2nc3cncnc3[nH]2)cc(OC)c1OC | > 100 µM (inactive) |  | > 100 µM (inactive) | > 100 µM (inactive) | > 100 µM (inactive) | > 100 µM (inactive) | > 100 µM (inactive) | > 100 µM (inactive) | > 100 µM (inactive) |  | 57.7 µM (inactive) | > 100 µM (inactive) |  | > 100 µM (inactive) | > 100 µM (inactive)
8 | Cc1ccc2nc(NC(=O)C(=O)C(C#N)c3ccc(Cl)cc3)sc2c1 (configuration not stated) | > 50 µM (inactive) | > 50 µM (inactive) | > 50 µM (inactive) | > 50 µM (inactive) | > 50 µM (inactive) | > 50 µM (inactive) | > 50 µM (inactive) |  | > 50 µM (inactive) | > 50 µM (inactive) | > 50 µM (inactive) | > 50 µM (inactive) | > 50 µM (inactive) | > 50 µM (inactive) | 
9 | O=C(OCc1ccccc1)N1N=NC2C3CC(OCc4ccccc4)(OCc4ccccc4)C(O3)C21 (configuration not stated) | 16.6 µM (inactive) | 12.6 µM (inactive) | 9.64 µM (inactive) | 32.7 µM (inactive) | 23.6 µM (inactive) | 26 µM (inactive) |  |  | 26 µM (inactive) | 14 µM (inactive) | 4.65 µM (inactive) | 22.2 µM (inactive) | 39.9 µM (inactive) |  | 5.5 µM (inactive)
10 | Cc1cc(NS(=O)(=O)c2ccc(Nc3c4ccccc4nc4c(C(=O)N5CCN(CCOS(C)(=O)=O)CC5)cccc34)cc2)no1 | > 100 µM (inactive) | > 100 µM (inactive) | > 100 µM (inactive) | > 100 µM (inactive) | > 100 µM (inactive) | > 100 µM (inactive) | > 100 µM (inactive) |  | > 100 µM (inactive) | > 100 µM (inactive) | > 100 µM (inactive) | > 100 µM (inactive) | > 100 µM (inactive) | > 100 µM (inactive) | 54.1 µM (inactive)
11 | CNc1nc(N)cc(O)n1 | > 100 µM (inactive) | > 100 µM (inactive) |  |  | > 100 µM (inactive) | > 100 µM (inactive) | > 100 µM (inactive) | > 100 µM (inactive) | > 100 µM (inactive) | > 100 µM (inactive) | > 100 µM (inactive) | > 100 µM (inactive) | > 100 µM (inactive) | > 100 µM (inactive) | > 100 µM (inactive)
12 | COc1cc([C@@H]2c3cc4c(cc3[C@@H](OC(=O)c3ccccc3)C3COC(=O)[C@@H]32)OCO4)cc(OC)c1O (some centres not stated) |  | < 0.01 µM (active) | 0.0101 µM (active) | < 0.01 µM (active) |  | < 0.01 µM (active) | < 0.01 µM (active) | < 0.01 µM (active) | 68.9 µM (inactive) |  | 0.132 µM (active) | 25.9 µM (inactive) | 0.0129 µM (active) |  | 0.0413 µM (active)
13 | O=C(CCc1ccccc1)On1nnc2ccccc2c1=O | > 100 µM (inactive) | > 100 µM (inactive) | > 100 µM (inactive) | > 100 µM (inactive) | > 100 µM (inactive) | > 100 µM (inactive) | > 100 µM (inactive) | > 100 µM (inactive) | > 100 µM (inactive) | > 100 µM (inactive) | > 100 µM (inactive) | > 100 µM (inactive) | > 100 µM (inactive) | > 100 µM (inactive) | > 100 µM (inactive)
14 | CC(=O)OCC(=O)[C@@]1(O)CC[C@H]2[C@@H]3C[C@H](C)C4=CC(=O)C=C[C@]4(C)[C@@]3(F)[C@@H](O)C[C@@]21C | > 100 µM (inactive) | 32.5 µM (inactive) | > 100 µM (inactive) | > 100 µM (inactive) | > 100 µM (inactive) | > 100 µM (inactive) |  | > 100 µM (inactive) | 12.9 µM (inactive) | > 100 µM (inactive) | 81.1 µM (inactive) | > 100 µM (inactive) | > 100 µM (inactive) | > 100 µM (inactive) | 68.7 µM (inactive)
15 | C/C(=N\NS(=O)(=O)c1ccc(C)cc1)c1ccc[n+]([O-])n1 | 39.5 µM (inactive) |  |  | > 100 µM (inactive) | 39.6 µM (inactive) | > 100 µM (inactive) | 99.3 µM (inactive) | 36.9 µM (inactive) | > 100 µM (inactive) | > 100 µM (inactive) | > 100 µM (inactive) | > 100 µM (inactive) | > 100 µM (inactive) | > 100 µM (inactive) | 56.9 µM (inactive)
16 | Cc1c(C(=O)/C=C/c2cccc3ccccc23)[n+]([O-])c2ccccc2[n+]1[O-] | 10.7 µM (inactive) | 14 µM (inactive) | 10.1 µM (inactive) | 11.4 µM (inactive) | 13.7 µM (inactive) | 12.3 µM (inactive) | 11 µM (inactive) | 5.9 µM (inactive) | 15.2 µM (inactive) | 13.5 µM (inactive) | 17.3 µM (inactive) | 4.47 µM (inactive) | 15.3 µM (inactive) | 15.7 µM (inactive) | 11.5 µM (inactive)
17 | O=C1C2c3[nH]c4ccccc4c3C3CCCC3C2C(=O)N1c1ccccc1 (configuration not stated) | > 100 µM (inactive) |  | > 100 µM (inactive) | > 100 µM (inactive) | > 100 µM (inactive) | > 100 µM (inactive) | 61.8 µM (inactive) |  |  |  |  | 17.1 µM (inactive) | 91.8 µM (inactive) |  | > 100 µM (inactive)
18 | CCOc1ccc(-c2oc(/C=N/NS(=O)(=O)c3ccc(C)cc3)c([N+](=O)[O-])c2-c2ccc(OCC)cc2)cc1 | 15.6 µM (inactive) | 14.4 µM (inactive) | 12.3 µM (inactive) | 16.1 µM (inactive) | 12.4 µM (inactive) | 5.19 µM (inactive) | 15.6 µM (inactive) | 5.96 µM (inactive) | 11.5 µM (inactive) | 16 µM (inactive) | 12.7 µM (inactive) | 11.3 µM (inactive) | 13.2 µM (inactive) | 15 µM (inactive) | 2.65 µM (inactive)
19 | C[C@H](CCC1SC1(C)C)C1CCC2(C)C3=C(CC[C@]12C)[C@@]1(C)CC[C@H](O)C(C)(C)C1CC3 (some centres not stated) | > 100 µM (inactive) | > 100 µM (inactive) | > 100 µM (inactive) |  | > 100 µM (inactive) | > 100 µM (inactive) | > 100 µM (inactive) | > 100 µM (inactive) | > 100 µM (inactive) | > 100 µM (inactive) | > 100 µM (inactive) | > 100 µM (inactive) | > 100 µM (inactive) | > 100 µM (inactive) | > 100 µM (inactive)
20 | C[C@@]1(Cc2ccccc2)C(=O)N2[C@@H](CO)C(c3ccccc3)O[C@]2(C)c2ccccc21 (some centres not stated) | > 100 µM (inactive) | > 100 µM (inactive) | > 100 µM (inactive) | > 100 µM (inactive) | > 100 µM (inactive) |  | > 100 µM (inactive) | 81.1 µM (inactive) | > 100 µM (inactive) |  | > 100 µM (inactive) | > 100 µM (inactive) |  | > 100 µM (inactive) | 32.3 µM (inactive)

Source: ChEMBL document CHEMBL1201862, “PubChem BioAssay data set” (2004)
